Converted amounts (≈) assume the structure as drawn.
Test: Comparative test of solubility in water of different forms of rifaximin (spectrophotometric, absorbance at 450.50 nm)
Format: physicochemical
Conditions: suspension in deionized water, constant stirring; for Solubility in water: 25° C.
Protocol: The solubility in water of different forms of rifaximin was evaluated by means of spectrophotometric method, by performing the analyses on a Lambda10 (Perkin Elmer) apparatus. The tests were performed at room temperature in demineralized water according to the following methodology. 1 g of commercial rifaximin (identified as form γ by X diffractometry) was dried in thermogravimetric apparatus at 105° C. until constant weight. 50.3 mg of the dried powder were weighed and brought in solution with deionized water in 2-L calibrated flask (solution 1). Under these conditions rifaximin was fully dissolved. On a portion of the obtained solution the spectral scanning was performed in the range of wavelengths comprised between 190 and 800 nm, by using as white deionized water. The obtained absorption spectrum points out an isolated maximum at 450.50 nm and such wavelength was used for the analytical measures. The calibration straight line was obtained by dilution of portions of the solution 1, thus obtaining the solution 2 (dilution 1:2.5), the solution 3 (1:10), the solution 4 (1:20) and the solution 5 (1:50). The straight line resulted to follow the Lambert-Beer law, showing linearity in the concentration range of the five measured reference solutions. For the tests for comparing the solubilities of the different forms, the absorbance of samples obtained from rifaximin suspensions in water excess subjected to constant stirring at 25° C. was measured. After drying at 105° C. until weight constancy, quantities properly weighed of the samples under examination (for a value of about 15 mg) were placed in becker under magnetic stirring, at 25° C. with 80 ml of deionized water. Measures on different samples obtained according to the methodologies reported in the examples 8 and 13 (defined full amorphous), on amorphous ones obtained as described in the examples 1 and 5 (with two halos) and compared to those of commercially available rifaximin, verified as form γ. In different periods of time comprised between 0.5 and 180 minutes, about 2-ml collections were performed, placed in test tube, having the prudence of preventing the collection of the suspended solid by means of filtration with filters for HPLC with porosity 0.2 μm. 0.3 ml of the collected solution were read at the UV by measuring the absorbance 450.50 nm. The samples with higher concentration, with absorbances so as to fall out of the range of the calibration straight line, were diluted until going back to the calibration range. Each experimental point consisted in 3 measures, the values thereof, coincident within 5% of error, were mediated. The concentrations are expressed in grams/liter.

| Solubility in water (time 0.5 min) | Solubility in water (time 2 min) | Solubility in water (time 5 min) | Solubility in water (time 10 min) | Solubility in water (time 30 min) | Solubility in water (time 60 min) | Solubility in water (time 120 min) | Solubility in water (time 180 min) | solubility at 120 min (deionized water, 25 °C, water, thermodynamic from solid, time 120 min) | solubility at 1 min (deionized water, 25 °C, water, thermodynamic from solid, time 1 min) | SMILES |
| --- | --- | --- | --- | --- | --- | --- | --- | --- | --- | --- |
|  |  | 31 µg/mL (≈ 39.4 µM) | 55 µg/mL (≈ 70 µM) | 72 µg/mL (≈ 91.6 µM) | 81 µg/mL (≈ 103 µM) | 86 µg/mL (≈ 109 µM) | 89 µg/mL (≈ 113 µM) |  |  | CO[C@H]1/C=C/O[C@@]2(C)Oc3c(C)c(O)c4c(O)c(c5c(nc6cc(C)ccn65)c4c3C2=O)NC(=O)/C(C)=C\C=C\[C@H](C)[C@H](O)[C@@H](C)[C@@H](O)[C@@H](C)[C@H](OC(C)=O)[C@@H]1C [example 13, rifaximin] |
| 2.7 µg/mL (≈ 3.44 µM) | 5.9 µg/mL (≈ 7.51 µM) | 8.2 µg/mL (≈ 10.4 µM) | 15 µg/mL (≈ 19.1 µM) | 23 µg/mL (≈ 29.3 µM) | 37 µg/mL (≈ 47.1 µM) | 43 µg/mL (≈ 54.7 µM) | 42 µg/mL (≈ 53.4 µM) |  | 5.4 µg/mL (≈ 6.87 µM) | CO[C@H]1/C=C/O[C@@]2(C)Oc3c(C)c(O)c4c(O)c(c5c(nc6cc(C)ccn65)c4c3C2=O)NC(=O)/C(C)=C\C=C\[C@H](C)[C@H](O)[C@@H](C)[C@@H](O)[C@@H](C)[C@H](OC(C)=O)[C@@H]1C [form γ, rifaximin] |

Further lines, the compound ahead of its results:

| SMILES | Solubility in water (time 0.5 min) | Solubility in water (time 2 min) | Solubility in water (time 5 min) | Solubility in water (time 10 min) | Solubility in water (time 30 min) | Solubility in water (time 60 min) | Solubility in water (time 120 min) | Solubility in water (time 180 min) | solubility at 120 min (deionized water, 25 °C, water, thermodynamic from solid, time 120 min) | solubility at 1 min (deionized water, 25 °C, water, thermodynamic from solid, time 1 min) |
| --- | --- | --- | --- | --- | --- | --- | --- | --- | --- | --- |
| CO[C@H]1/C=C/O[C@@]2(C)Oc3c(C)c(O)c4c(O)c(c5c(nc6cc(C)ccn65)c4c3C2=O)NC(=O)/C(C)=C\C=C\[C@H](C)[C@H](O)[C@@H](C)[C@@H](O)[C@@H](C)[C@H](OC(C)=O)[C@@H]1C [example 1, rifaximin] | 1.11 µg/mL (≈ 1.41 µM) | 5.1 µg/mL (≈ 6.49 µM) | 6.9 µg/mL (≈ 8.78 µM) | 14 µg/mL (≈ 17.8 µM) | 25 µg/mL (≈ 31.8 µM) | 36 µg/mL (≈ 45.8 µM) | 46 µg/mL (≈ 58.5 µM) | 45 µg/mL (≈ 57.3 µM) |  |  |
| CO[C@H]1/C=C/O[C@@]2(C)Oc3c(C)c(O)c4c(O)c(c5c(nc6cc(C)ccn65)c4c3C2=O)NC(=O)/C(C)=C\C=C\[C@H](C)[C@H](O)[C@@H](C)[C@@H](O)[C@@H](C)[C@H](OC(C)=O)[C@@H]1C [example 5, rifaximin] |  |  | 7.1 µg/mL (≈ 9.03 µM) | 15 µg/mL (≈ 19.1 µM) | 27 µg/mL (≈ 34.4 µM) | 37 µg/mL (≈ 47.1 µM) | 44 µg/mL (≈ 56 µM) | 46 µg/mL (≈ 58.5 µM) |  |  |
| CO[C@H]1/C=C/O[C@@]2(C)Oc3c(C)c(O)c4c(O)c(c5c(nc6cc(C)ccn65)c4c3C2=O)NC(=O)/C(C)=C\C=C\[C@H](C)[C@H](O)[C@@H](C)[C@@H](O)[C@@H](C)[C@H](OC(C)=O)[C@@H]1C [example 8, rifaximin] | 3.3 µg/mL (≈ 4.2 µM) | 13 µg/mL (≈ 16.5 µM) | 29 µg/mL (≈ 36.9 µM) | 51 µg/mL (≈ 64.9 µM) | 76 µg/mL (≈ 96.7 µM) | 82 µg/mL (≈ 104 µM) |  | 86.4 µg/mL (≈ 110 µM) | 85 µg/mL (≈ 108 µM) |  |

From patent publication US8952159B2, “Method for the production of amorphous rifaximin” (priority 2009, dated 2015)
